Among the data in US9073855B2, “BCL-2 selective apoptosis-inducing agents for the treatment of cancer and immune diseases” (AbbVie Inc., priority 2008, dated 2015) are Ki and EC50 values, retold here.

The target in assay [1] is GST-Bcl-2 (Homo sapiens, UniProt P10415). As to the kind of experiment: TR-FRET binding assay, GST-Bcl-2 with F-Bak peptide probe. The note with it: TR-FRET Binding Affinity, GST-Bcl-2, F-Bak peptide probe. Summed up: (§1)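 Ki was derived with Wang's equation for competitive binding of two ligands. The read-out was time-resolved fluorescence after a 3 h room-temperature incubation, using a Tb-labelled antibody donor and the F-Bak peptide acceptor (excitation 340/35 nm). Test compounds entered as DMSO serial dilutions starting at 50 μM, which was the 2× concentration.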
In general terms: In TR-FRET formats the signal depends on donor and acceptor labels being close together.

In assay [2] the test system is FL5.12/Bcl-2 cells. As to the kind of experiment: FL5.12/Bcl-2 cell viability assay under IL-3 withdrawal (CellTitre Glo). The assay is classed as cell-based, murine. Conditions: Mus musculus, IL-3 withdrawn 48 hrs, then 24 hrs with compound. An excerpt: FL5.12 is an IL-3 dependent prolymphocytic murine cell line that undergoes apoptosis upon IL-3 withdrawal as a result of the upregulation of pro-apoptotic Bcl-2 proteins such as Bim and Puma. Stable overexpression of anti-apoptotic Bcl-2 protein (FL5.12/Bcl-2) protects against apoptosis induced by IL-3 withdrawal by sequestration of Bim and Puma. […] The ability of compounds to kill FL5.12/Bcl-2 cells upon IL-3 withdrawal is a direct measure of the compounds' ability to inhibit anti-apoptotic Bcl-2 protein function.
Wild type FL5.12/Bcl-2 overexpressing stable transfectants were cultured in RPMI-1640 supplemented with 2 mM L-glutamine, 10% FBS, 1 mM sodium pyruvate, 2 mM HEPES, 1% penicillin/streptomycin (Invitrogen), 57 μM β-ME, and 10% WEHI-3B conditioned medium (source of IL-3) and maintained at 37° C. containing 5% CO2. 1×10^6 cells/ml were washed 1×PBS and resuspended in medium not supplemented with 10% WEHI-3B for 48 hrs prior to cytotoxicity assays. Cells were then treated for an additional 24 hrs in the presence of various concentrations of the indicated compounds. Cell viability was assessed by CellTitre Glo assay (Promega Corp.) according to the manufacturer's recommendations.

For assay [3], the target named is GST-Bcl-XL (Homo sapiens, UniProt Q07817). As to the kind of experiment: TR-FRET binding assay, GST-Bcl-XL with F-Bak peptide probe. Conditions: TR-FRET Binding Affinity, GST-Bcl-XL, F-Bak peptide probe. In a few lines:
as §1

GST-Bcl-XL, sequence (Q07817 whole entry): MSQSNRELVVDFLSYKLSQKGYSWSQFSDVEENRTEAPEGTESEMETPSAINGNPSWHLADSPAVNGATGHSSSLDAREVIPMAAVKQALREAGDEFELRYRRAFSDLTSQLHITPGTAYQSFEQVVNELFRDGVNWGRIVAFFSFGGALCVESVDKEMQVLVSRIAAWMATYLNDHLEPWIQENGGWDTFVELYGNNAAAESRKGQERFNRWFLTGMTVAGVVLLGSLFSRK
GST-Bcl-2, sequence (P10415 whole entry): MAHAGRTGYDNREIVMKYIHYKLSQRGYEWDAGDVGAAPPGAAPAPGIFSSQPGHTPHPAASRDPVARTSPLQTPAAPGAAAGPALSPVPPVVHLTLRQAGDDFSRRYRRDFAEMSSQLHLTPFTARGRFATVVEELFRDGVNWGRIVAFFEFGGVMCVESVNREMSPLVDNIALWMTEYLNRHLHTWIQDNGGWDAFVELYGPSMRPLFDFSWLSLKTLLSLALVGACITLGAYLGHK

Broadly, the Ki is the equilibrium dissociation constant of an inhibitor or competing ligand from its target. Higher therefore signals weaker binding. One may read the EC50 as the midpoint of the concentration-response curve. `CC1(C)CCC(CN2CCN(c3ccc(C(=O)NS(=O)(=O)c4ccc(NC5CCN(CCO)CC5)c([N+](=O)[O-])c4)c(Oc4cccc5[nH]ccc45)c3)CC2)=C(c2ccc(Cl)cc2)C1` [Example 191, 4-(4-{[2-(4-chlorophenyl)-4,4-dimethylcyclohex-1-en-1-yl]methyl}piperazin-1-yl)-N-[(4-{[1-(2-hydroxyethyl)piperidin-4-yl]amino}-3-nitrophenyl)sulfonyl]-2-(1H-indol-4-yloxy)benzamide]: the Ki was 0.073 nM in assay [1] and 9.16 nM in assay [3]. In addition, in assay [2], the EC50 was found to be 11.7 nM.
The like results for `COCCN1CCC(Nc2ccc(S(=O)(=O)NC(=O)c3ccc(N4CCN(CC5=C(c6ccc(Cl)cc6)CC(C)(C)CC5)CC4)cc3Oc3cccc4[nH]ccc34)cc2[N+](=O)[O-])CC1` [Example 194, 4-(4-{[2-(4-chlorophenyl)-4,4-dimethylcyclohex-1-en-1-yl]methyl}piperazin-1-yl)-2-(1H-indol-4-yloxy)-N-[(4-{[1-(2-methoxyethyl)piperidin-4-yl]amino}-3-nitrophenyl)sulfonyl]benzamide] were, in that order, 0.151 nM, 32 nM and 27 nM.
As to `CC1(C)CCC(CN2CCN(c3ccc(C(=O)NS(=O)(=O)c4ccc(NC5CCN(CCCO)CC5)c([N+](=O)[O-])c4)c(Oc4cccc5[nH]ccc45)c3)CC2)=C(c2ccc(Cl)cc2)C1` [Example 195, 4-(4-{[2-(4-chlorophenyl)-4,4-dimethylcyclohex-1-en-1-yl]methyl}piperazin-1-yl)-N-[(4-{[1-(3-hydroxypropyl)piperidin-4-yl]amino}-3-nitrophenyl)sulfonyl]-2-(1H-indol-4-yloxy)benzamide], the Ki in assay [1] is 0.039 nM; in assay [3], 6.71 nM. For the same compound, the EC50 in assay [2] is 11.2 nM.
The corresponding values for `CN(C)CCCc1cccc(-c2ccc(Cl)cc2)c1CN1CCN(c2ccc(C(=O)NS(=O)(=O)c3ccc(NCC4CCOCC4)c([N+](=O)[O-])c3)c(Oc3cccc4[nH]ccc34)c2)CC1` [Example 196, 4-[4-({4′-chloro-3-[3-(dimethylamino)propyl]-1,1′-biphenyl-2-yl}methyl)piperazin-1-yl]-2-(1H-indol-4-yloxy)-N-({3-nitro-4-[(tetrahydro-2H-pyran-4-ylmethyl)amino]phenyl}sulfonyl)benzamide] are 0.032 nM, above 660 nM and 12.4 nM.
The corresponding values for `CC1(C)CCC(CN2CCN(c3ccc(C(=O)NS(=O)(=O)c4ccc(NC5CCN(CCCO)CC5)c([N+](=O)[O-])c4)c(Oc4ccc5[nH]ccc5c4)c3)CC2)=C(c2ccc(Cl)cc2)C1` [Example 197, 4-(4-{[2-(4-chlorophenyl)-4,4-dimethylcyclohex-1-en-1-yl]methyl}piperazin-1-yl)-N-[(4-{[1-(3-hydroxypropyl)piperidin-4-yl]amino}-3-nitrophenyl)sulfonyl]-2-(1H-indol-5-yloxy)benzamide] are 0.025 nM, 4.84 nM and 6.18 nM.
For `CN(C)CCOc1cccc(-c2ccc(Cl)cc2)c1CN1CCN(c2ccc(C(=O)NS(=O)(=O)c3ccc(NC4CCN(C5CCOCC5)CC4)c([N+](=O)[O-])c3)c(Oc3cccc4[nH]ccc34)c2)CC1` [Example 199, 4-[4-({4′-chloro-3-[2-(dimethylamino)ethoxy]-1,1′-biphenyl-2-yl}methyl)piperazin-1-yl]-2-(1H-indol-4-yloxy)-N-({3-nitro-4-[(1-tetrahydro-2H-pyran-4-ylpiperidin-4-yl)amino]phenyl}sulfonyl)benzamide], the results for the Ki in assay [1] and in assay [3] were 0.014 nM and 5.23 nM, respectively. Besides, the EC50 in assay [2] was 28.5 nM.
The corresponding values for `CCN(CC)C1CCC(Nc2ccc(S(=O)(=O)NC(=O)c3ccc(N4CCN(CC5=C(c6ccc(Cl)cc6)CC(C)(C)CC5)CC4)cc3Oc3ccc4[nH]ccc4c3)cc2[N+](=O)[O-])CC1` (stereo not drawn) [Example 201, 4-(4-{[2-(4-chlorophenyl)-4,4-dimethylcyclohex-1-en-1-yl]methyl}piperazin-1-yl)-N-[(4-{[4-(diethylamino)cyclohexyl]amino}-3-nitrophenyl)sulfonyl]-2-(1H-indol-5-yloxy)benzamide] are 0.125 nM, 24.6 nM and 17.4 nM.
For the compound `CN(C)C1CCC(Nc2ccc(S(=O)(=O)NC(=O)c3ccc(N4CCN(CC5=C(c6ccc(Cl)cc6)CC(C)(C)CC5)CC4)cc3Oc3cccc4[nH]ccc34)cc2[N+](=O)[O-])CC1` (stereo not drawn) [Example 202, 4-(4-{[2-(4-chlorophenyl)-4,4-dimethylcyclohex-1-en-1-yl]methyl}piperazin-1-yl)-N-[(4-{[4-(dimethylamino)cyclohexyl]amino}-3-nitrophenyl)sulfonyl]-2-(1H-indol-4-yloxy)benzamide], the figures for the Ki in assay [1] and in assay [3] were 0.052 nM and 5.07 nM, respectively. Besides, the EC50 in assay [2] is 13.8 nM.
The like results for `CCN(CC)C1CCC(Nc2ccc(S(=O)(=O)NC(=O)c3ccc(N4CCN(CC5=C(c6ccc(Cl)cc6)CC(C)(C)CC5)CC4)cc3Oc3cccc4[nH]ccc34)cc2[N+](=O)[O-])CC1` (stereo not drawn) [Example 203, 4-(4-{[2-(4-chlorophenyl)-4,4-dimethylcyclohex-1-en-1-yl]methyl}piperazin-1-yl)-N-[(4-{[4-(diethylamino)cyclohexyl]amino}-3-nitrophenyl)sulfonyl]-2-(1H-indol-4-yloxy)benzamide] were, in that order, 0.031 nM, 4.3 nM and 22.3 nM.
The corresponding values for `CC1(C)CCC(CN2CCN(c3ccc(C(=O)NS(=O)(=O)c4ccc(N[C@H]5CC[C@H](N6CCOCC6)CC5)c([N+](=O)[O-])c4)c(Oc4cccc5[nH]ccc45)c3)CC2)=C(c2ccc(Cl)cc2)C1` [Example 204, Trans-4-(4-{[2-(4-chlorophenyl)-4,4-dimethylcyclohex-1-en-1-yl]methyl}piperazin-1-yl)-2-(1H-indol-4-yloxy)-N-({4-[(4-morpholin-4-ylcyclohexyl)amino]-3-nitrophenyl}sulfonyl)benzamide] are 0.145 nM, 42.3 nM and 27.4 nM.
The like results for `CN(C)CCOc1cccc(-c2ccc(Cl)cc2)c1CN1CCN(c2ccc(C(=O)NS(=O)(=O)c3ccc(NC4CCN(C)CC4)c([N+](=O)[O-])c3)c(Oc3cccc4[nH]ccc34)c2)CC1` [Example 205, 4-[4-({4′-chloro-3-[2-(dimethylamino)ethoxy]-1,1′-biphenyl-2-yl}methyl)piperazin-1-yl]-2-(1H-indol-4-yloxy)-N-({4-[(1-methylpiperidin-4-yl)amino]-3-nitrophenyl}sulfonyl)benzamide] were, in that order, 0.005 nM, 3.57 nM and 37.5 nM.
In the case of `CC(c1ccccc1-c1ccc(Cl)cc1)N1CCN(c2ccc(C(=O)NS(=O)(=O)c3ccc(NC4CCN(C)CC4)c([N+](=O)[O-])c3)c(Oc3cccc4[nH]ccc34)c2)CC1` (stereo not drawn) [Example 206, 4-{4-[1-(4′-chloro-1,1′-biphenyl-2-yl)ethyl]piperazin-1-yl}-2-(1H-indol-4-yloxy)-N-({4-[(1-methylpiperidin-4-yl)amino]-3-nitrophenyl}sulfonyl)benzamide], the Ki was 0.083 nM in assay [1] and above 660 nM in assay [3]. For the same compound, the EC50 in assay [2] came to 5.01 nM.
As for `CN(C)C1(CNc2ccc(S(=O)(=O)NC(=O)c3ccc(N4CCN(CC5=C(c6ccc(Cl)cc6)CC(C)(C)CC5)CC4)cc3Oc3ccc4[nH]ccc4c3)cc2[N+](=O)[O-])CCOCC1` [Example 207, 4-(4-{[2-(4-chlorophenyl)-4,4-dimethylcyclohex-1-en-1-yl]methyl}piperazin-1-yl)-N-{[4-({[4-(dimethylamino)tetrahydro-2H-pyran-4-yl]methyl}amino)-3-nitrophenyl]sulfonyl}-2-(1H-indol-5-yloxy)benzamide], the figures for the inhibition constant (Ki) in assay [1] and in assay [3] were 0.218 nM and above 660 nM, respectively. Moreover, in assay [2], the EC50 was 120 nM.
The corresponding values for `CC1(C)CCC(CN2CCN(c3ccc(C(=O)NS(=O)(=O)c4ccc(NC5CCCCC5N)c([N+](=O)[O-])c4)c(Oc4ccc5[nH]ccc5c4)c3)CC2)=C(c2ccc(Cl)cc2)C1` (stereo not drawn) [Example 208, N-({4-[(2-aminocyclohexyl)amino]-3-nitrophenyl}sulfonyl)-4-(4-{[2-(4-chlorophenyl)-4,4-dimethylcyclohex-1-en-1-yl]methyl}piperazin-1-yl)-2-(1H-indol-5-yloxy)benzamide] are 0.589 nM, above 660 nM and 264 nM.
The corresponding values for `CN(C)CC#Cc1ccc(-c2ccc(Cl)cc2)c(CN2CCN(c3ccc(C(=O)NS(=O)(=O)c4ccc(NCC5CCOCC5)c([N+](=O)[O-])c4)c(Oc4cccc5[nH]ccc45)c3)CC2)c1` [Example 209, 4-[4-({4′-chloro-4-[3-(dimethylamino)prop-1-ynyl]-1,1′-biphenyl-2-yl}methyl)piperazin-1-yl]-2-(1H-indol-4-yloxy)-N-({3-nitro-4-[(tetrahydro-2H-pyran-4-ylmethyl)amino]phenyl}sulfonyl)benzamide] are 0.267 nM, above 660 nM and 139 nM.
